Where two headings read alike, the source gives them in different places.
Assays:
[1] = system: transgenic fli-1: enhanced GFP zebrafish embryos; experiment: Zebrafish embryo assay: antiangiogenic effects; format: in vivo, zebrafish (Danio rerio)
Protocol: As stated previously, zebrafish is regarded as a powerful tool in the study of human diseases. […] In this study, all GA derivatives were incubated with the transgenic friend leukemia integration-1 (fli-1): enhanced GFP zebrafish embryos which carried a fli-1 promoter which can drive the expression of GFP in the whole endothelium.
Figure 1 Effects on neovascularization in zebrafish embryos. The transgenic fli-1: enhanced GFP zebrafish embryos in embryo water (0.2 g/L of instant ocean salt in distilled water) incubated with 1 μM of compounds at 6 h postfertilization (hpf) for 24 h. Zebrafish embryos were imaged (Imager.Z1, magnification: left, 40×; right, 100×).
Using transgenic fli-1: enhanced GFP zebrafish embryos, we investigated the effects of all compounds on angiogenesis. […] At about 6 h post fertilization (hpf), the embryos were sorted in the 6-well plate (six embryos/well), removing dead and unhealthy embryos. Then the embryos were treated with the indicated concentrations of compounds which were added into embryo water. After incubation for 24 or 48 h, the embryos were anesthetized using 0.05% 2-phenoxyethanol in embryo water, quantified and photographed.

[2] = system: A549; experiment: MTT assay, cell proliferation; format: cell-based; conditions: Homo sapiens, 24 h, read-out: IC50, inhibition of cell proliferation
Protocol: (§1) HepG2, HCT116, HeLa and LO2 cell lines were cultured in DMEM containing 10% fetal bovine serum (FBS), 100 IU/mL penicillin and 100 µg/mL streptomycin; A549 and K562 cell lines were cultured in RPMI 1640 medium containing 10% fetal bovine serum (FBS), 100 IU/mL penicillin and 100 µg/mL streptomycin; Human umbilical vein endothelial cells (HUVECs) were cultured on gelatin-coated culture flasks in M-199 medium with 20% fetal bovine serum (FBS), 2 ng/mL VEGF, 10 ng/mL basic FGF, 100 IU/mL penicillin, and 100 μg/mL streptomycin; all of them were obtained from the American Type Culture Collection (ATCC) and all cell lines were incubated in an atmosphere of 5% CO2 at 37 °C.
(§2) Cells were treated with various concentrations of compound in 96-well culture plates for 24 h in final volumes of 200 μL (5 × 10^3 cells/well). Then 20 μL of MTT solution (5 mg/mL) was added to each well, and cells were incubated for an additional 3 h. Then the medium was carefully removed, and precipitates were dissolved in 150 μL of DMSO, shaken mechanically for 30 min, and then absorbance values at a wavelength of 570 nm were taken on a spectrophotometer (Molecular Devices, Sunnyvale, CA, USA). Values were calculated using percentage of growth versus untreated control. The IC50 was defined as the concentration that caused 50% inhibition of cell proliferation, and was calculated by SAS statistical software.

[3] = system: HCT116; experiment: MTT assay, cell proliferation; format: cell-based; conditions: Homo sapiens, HCT-116, 24 h, read-out: IC50, inhibition of cell proliferation
Protocol: as §1, §2

[4] = system: HeLa; experiment: MTT assay, cell proliferation; format: cell-based; conditions: Homo sapiens, 24 h, read-out: IC50, inhibition of cell proliferation
Protocol: as §1, §2

[5] = system: HepG2; experiment: MTT assay, cell proliferation; format: cell-based; conditions: Homo sapiens, 24 h, read-out: IC50, inhibition of cell proliferation
Protocol: as §1, §2

[6] = system: K562; experiment: MTT assay, cell proliferation; format: cell-based; conditions: Homo sapiens, 24 h, read-out: IC50, inhibition of cell proliferation
Protocol: as §1, §2

[7] = system: HUVEC; experiment: MTT assay, cell proliferation; format: cell-based, Human; conditions: Homo sapiens, 24 h, read-out: IC50, inhibition of cell proliferation
Protocol: Inhibiting the proliferation of ECs is another important strategy for antiangiogenesis. […] As the exposure time of these derivatives was 24 h in the migration assay and 6 h in the tube formation assay, the effect of the incubation for 24 h in the presence of these compounds on HUVECs proliferation was then tested. Cell viability was assessed by the MTT method. We can see from Table 4 that these compounds had different antiproliferative activities.
as §1, §2

[8] = system: LO2; experiment: MTT assay, cytotoxicity; format: cell-based; conditions: Homo sapiens, L02, 24 h, read-out: IC50, inhibition of cell proliferation
Protocol: as §1, §2

[9] = Danio rerio, zebrafish embryos, vs vehicle (0.05% DMSO), read-out: Anti-angiogenic phenotype

SMILES | antiangiogenic rates ([1]; 1 μM, zebrafish embryos) | inhibition in vivo at 10 µM [1, 9] | IC50 [2] | IC50 [3] | IC50 [4] | IC50 [5] | IC50 [6] | IC50 [7] | IC50 [8] | antiangiogenic activities ([1]; 2.5 μM, not enhanced greatly at 10 μM) | inhibition in vivo at 1 µM ([1]; Danio rerio, 1 μM, zebrafish embryos, read-out: antiangiogenic rates) | inhibition in vivo at 1 µM ([1]; Danio rerio, 1 μM, zebrafish embryos, vs vehicle (0.05% DMSO), read-out: Anti-angiogenic phenotype) | inhibition in vivo at 2.5 µM ([1]; Danio rerio, 2.5 μM, zebrafish embryos, vs vehicle (0.05% DMSO), read-out: Anti-angiogenic phenotype)
CC(C)=CCCC1(C)C=Cc2c(O)c3c(c(CC=C(C)C)c2O1)OC12C(=CC4CC1C(C)(C)OC2(C/C=C(/C)C(=O)Oc1ccc(Cl)cc1C=O)C4=O)C3=O (stereo not drawn) [Compound 23, 4-Chloro-2-formylphenyl gambogate] | inactive | 25 to 50% | 73.5 ± 3.4 µM | 15.9 ± 1.46 µM | 61.6 ± 5.86 µM | 19.9 ± 2.89 µM | 15.5 ± 1.35 µM | 32 ± 1.76 µM | 31.7 ± 1.94 µM | – | – | – | –
CCCC(=O)Nc1ccc(OC(=O)/C(C)=C\CC23OC(C)(C)C4CC(C=C5C(=O)c6c(O)c7c(c(CC=C(C)C)c6OC542)OC(C)(CCC=C(C)C)C=C7)C3=O)cc1 (stereo not drawn) [Compound 26, 4-Butyramidophenyl gambogate] | – | 25 to 50% | 4 ± 0.8 µM | 1.73 ± 0.44 µM | 4.46 ± 0.57 µM | 1.72 ± 0.12 µM | 0.77 ± 0.03 µM | 2.98 ± 0.1 µM | 4.22 ± 0.5 µM | moderate | 25 to 50% | 25 to 50% | 25 to 50%
CC(=O)Nc1ccccc1OC(=O)/C(C)=C\CC12OC(C)(C)C3CC(C=C4C(=O)c5c(O)c6c(c(CC=C(C)C)c5OC431)OC(C)(CCC=C(C)C)C=C6)C2=O (stereo not drawn) [Compound 27, 2-Acetamidophenyl gambogate] | – | – | 1.22 ± 0.25 µM | 1.05 ± 0.07 µM | 3.51 ± 0.15 µM | 0.69 ± 0.08 µM | 0.52 ± 0.02 µM | 0.5 ± 0.03 µM | 1.52 ± 0.12 µM | – | – | – | –
CC(C)=CCCC1(C)C=Cc2c(O)c3c(c(CC=C(C)C)c2O1)OC12C(=CC4CC1C(C)(C)OC2(C/C=C(/C)C(=O)Nc1nc2ccccc2s1)C4=O)C3=O (stereo not drawn) [Compound 34, N-(benzo[d]thiazol-2-yl) gambogamide] | – | – | 21.4 ± 3.71 µM | 7.74 ± 1.43 µM | > 80 µM | 8.65 ± 0.46 µM | > 20 µM | 5.63 ± 0.2 µM | 7.3 ± 1.2 µM | – | – | – | –
CC(=O)Nc1ccc(SC(=O)/C(C)=C\CC23OC(C)(C)C4CC(C=C5C(=O)c6c(O)c7c(c(CC=C(C)C)c6OC542)OC(C)(CCC=C(C)C)C=C7)C3=O)cc1 (stereo not drawn) [Compound 30, 4-Acetamidophenyl gambogthioate] | – | – | 1.24 ± 0.09 µM | 1.33 ± 0.07 µM | 3.43 ± 0.28 µM | 1.72 ± 0.03 µM | 0.44 ± 0.02 µM | 1.03 ± 0.07 µM | 2.84 ± 0.34 µM | – | – | – | –

Source: paper PMC6268492, “Synthesis and Antiangiogenic Activity of Novel Gambogic Acid Derivatives” (Molecules, 2012)
